Tests used:
[1] = test system: Tyrosine-protein kinase ABL1 (Homo sapiens), P00519 [F317I]; conditions: Compound concentration 1000.0 nM
[2] = molecular target: Activin receptor type-1B (Homo sapiens) (UniProt P36896); conditions: Compound concentration 1000.0 nM
[3] = molecular target: Mitogen-activated protein kinase kinase kinase 5 (Homo sapiens) (UniProt Q99683); conditions: Compound concentration 1000.0 nM
[4] = molecular target: Bone morphogenetic protein receptor type-1A (Homo sapiens) (UniProt P36894); conditions: Compound concentration 1000.0 nM
[5] = molecular target: Cytoplasmic tyrosine-protein kinase BMX (Homo sapiens) (UniProt P51813); conditions: Compound concentration 1000.0 nM
[6] = molecular target: Serine/threonine-protein kinase B-raf (Homo sapiens) (UniProt P15056); conditions: Compound concentration 1000.0 nM
[7] = molecular target: Cyclin-dependent kinase 9 (Homo sapiens) (UniProt P50750); conditions: Compound concentration 1000.0 nM
[8] = molecular target: Cyclin-dependent kinase-like 2 (Homo sapiens) (UniProt Q92772); conditions: Compound concentration 1000.0 nM
[9] = molecular target: Serine/threonine-protein kinase Chk1 (Homo sapiens) (UniProt O14757); conditions: Compound concentration 1000.0 nM
[10] = molecular target: Macrophage colony-stimulating factor 1 receptor (Homo sapiens) (UniProt P07333); conditions: Compound concentration 1000.0 nM
[11] = molecular target: Casein kinase I isoform gamma-3 (Homo sapiens) (UniProt Q9Y6M4); conditions: Compound concentration 1000.0 nM
[12] = molecular target: Dual specificity tyrosine-phosphorylation-regulated kinase 1B (Homo sapiens) (UniProt Q9Y463); conditions: Compound concentration 1000.0 nM
[13] = molecular target: Ephrin type-A receptor 3 (Homo sapiens) (UniProt P29320); conditions: Compound concentration 1000.0 nM
[14] = molecular target: Ephrin type-A receptor 4 (Homo sapiens) (UniProt P54764); conditions: Compound concentration 1000.0 nM
[15] = molecular target: Fibroblast growth factor receptor 2 (Homo sapiens) (UniProt P21802); conditions: Compound concentration 1000.0 nM
[16] = molecular target: Fibroblast growth factor receptor 4 (Homo sapiens) (UniProt P22455); conditions: Compound concentration 1000.0 nM
[17] = molecular target: Receptor-type tyrosine-protein kinase FLT3 (Homo sapiens) (UniProt P36888); conditions: Compound concentration 1000.0 nM
[18] = test system: Receptor-type tyrosine-protein kinase FLT3 (Homo sapiens), P36888 [D835Y]; conditions: Compound concentration 1000.0 nM
[19] = molecular target: Rhodopsin kinase GRK1 (Homo sapiens) (UniProt Q15835); conditions: Compound concentration 1000.0 nM
[20] = molecular target: G protein-coupled receptor kinase 4 (Homo sapiens) (UniProt P32298); conditions: Compound concentration 1000.0 nM
[21] = molecular target: Glycogen synthase kinase-3 beta (Homo sapiens) (UniProt P49841); conditions: Compound concentration 1000.0 nM
[22] = molecular target: Inhibitor of nuclear factor kappa-B kinase subunit alpha (Homo sapiens) (UniProt O15111); conditions: Compound concentration 1000.0 nM
[23] = molecular target: Interleukin-1 receptor-associated kinase 3 (Homo sapiens) (UniProt Q9Y616); conditions: Compound concentration 1000.0 nM
[24] = test system: Mast/stem cell growth factor receptor Kit (Homo sapiens), P10721 [V559D,T670I]; conditions: Compound concentration 1000.0 nM
[25] = molecular target: Tyrosine-protein kinase Lck (Homo sapiens) (UniProt P06239); conditions: Compound concentration 1000.0 nM
[26] = molecular target: Mitogen-activated protein kinase kinase kinase 2 (Homo sapiens) (UniProt Q9Y2U5); conditions: Compound concentration 1000.0 nM
[27] = molecular target: Dual specificity mitogen-activated protein kinase kinase 2 (Homo sapiens) (UniProt P36507); conditions: Compound concentration 1000.0 nM
[28] = molecular target: Myosin-IIIb (Homo sapiens) (UniProt Q8WXR4); conditions: Compound concentration 1000.0 nM
[29] = molecular target: Serine/threonine-protein kinase Nek4 (Homo sapiens) (UniProt P51957); conditions: Compound concentration 1000.0 nM
[30] = molecular target: Calcium-dependent protein kinase 1 (Plasmodium falciparum) (UniProt P62344); conditions: Compound concentration 1000.0 nM
[31] = molecular target: Cyclin-dependent kinase 14 (Homo sapiens) (UniProt O94921); conditions: Compound concentration 1000.0 nM
[32] = test system: Phosphatidylinositol 4,5-bisphosphate 3-kinase catalytic subunit alpha isoform (Homo sapiens), P42336 [E542K]; conditions: Compound concentration 1000.0 nM
[33] = test system: Phosphatidylinositol 4,5-bisphosphate 3-kinase catalytic subunit alpha isoform (Homo sapiens), P42336 [H1047Y]; conditions: Compound concentration 1000.0 nM
[34] = molecular target: Serine/threonine-protein kinase PLK1 (Homo sapiens) (UniProt P53350); conditions: Compound concentration 1000.0 nM
[35] = molecular target: Serine/threonine-protein kinase D1 (Homo sapiens) (UniProt Q15139); conditions: Compound concentration 1000.0 nM
[36] = molecular target: Protein-tyrosine kinase 2-beta (Homo sapiens) (UniProt Q14289); conditions: Compound concentration 1000.0 nM
[37] = molecular target: Proto-oncogene tyrosine-protein kinase receptor Ret (Homo sapiens) (UniProt P07949); conditions: Compound concentration 1000.0 nM
[38] = molecular target: Receptor-interacting serine/threonine-protein kinase 1 (Homo sapiens) (UniProt Q13546); conditions: Compound concentration 1000.0 nM
[39] = molecular target: Ribosomal protein S6 kinase alpha-6 (Homo sapiens) (UniProt Q9UK32); conditions: Compound concentration 1000.0 nM
[40] = molecular target: Serine/threonine-protein kinase Sgk1 (Homo sapiens) (UniProt O00141); conditions: Compound concentration 1000.0 nM
[41] = molecular target: Serine/threonine-protein kinase SIK2 (Homo sapiens) (UniProt Q9H0K1); conditions: Compound concentration 1000.0 nM
[42] = molecular target: SRSF protein kinase 1 (Homo sapiens) (UniProt Q96SB4); conditions: Compound concentration 1000.0 nM
[43] = molecular target: Activated CDC42 kinase 1 (Homo sapiens) (UniProt Q07912); conditions: Compound concentration 1000.0 nM
[44] = molecular target: Serine/threonine-protein kinase WNK2 (Homo sapiens) (UniProt Q9Y3S1); conditions: Compound concentration 1000.0 nM
[45] = molecular target: Mu-type opioid receptor (Homo sapiens) (UniProt P35372); conditions: Compound concentration 10.0 uM

Glycogen synthase kinase-3 beta (Homo sapiens), sequence (P49841 whole entry, looked up): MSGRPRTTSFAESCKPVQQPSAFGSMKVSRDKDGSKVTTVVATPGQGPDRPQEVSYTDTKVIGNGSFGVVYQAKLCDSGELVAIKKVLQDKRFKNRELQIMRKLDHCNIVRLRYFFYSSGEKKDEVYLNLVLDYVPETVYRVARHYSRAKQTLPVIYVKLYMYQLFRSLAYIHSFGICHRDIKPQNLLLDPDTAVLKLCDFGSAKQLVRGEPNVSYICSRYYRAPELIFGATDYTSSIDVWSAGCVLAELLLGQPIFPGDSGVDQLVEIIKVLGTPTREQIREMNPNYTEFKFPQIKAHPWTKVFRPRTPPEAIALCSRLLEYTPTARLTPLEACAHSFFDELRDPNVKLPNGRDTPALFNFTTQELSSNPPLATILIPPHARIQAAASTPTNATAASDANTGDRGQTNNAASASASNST
Ephrin type-A receptor 3 (Homo sapiens), sequence (P29320 whole entry): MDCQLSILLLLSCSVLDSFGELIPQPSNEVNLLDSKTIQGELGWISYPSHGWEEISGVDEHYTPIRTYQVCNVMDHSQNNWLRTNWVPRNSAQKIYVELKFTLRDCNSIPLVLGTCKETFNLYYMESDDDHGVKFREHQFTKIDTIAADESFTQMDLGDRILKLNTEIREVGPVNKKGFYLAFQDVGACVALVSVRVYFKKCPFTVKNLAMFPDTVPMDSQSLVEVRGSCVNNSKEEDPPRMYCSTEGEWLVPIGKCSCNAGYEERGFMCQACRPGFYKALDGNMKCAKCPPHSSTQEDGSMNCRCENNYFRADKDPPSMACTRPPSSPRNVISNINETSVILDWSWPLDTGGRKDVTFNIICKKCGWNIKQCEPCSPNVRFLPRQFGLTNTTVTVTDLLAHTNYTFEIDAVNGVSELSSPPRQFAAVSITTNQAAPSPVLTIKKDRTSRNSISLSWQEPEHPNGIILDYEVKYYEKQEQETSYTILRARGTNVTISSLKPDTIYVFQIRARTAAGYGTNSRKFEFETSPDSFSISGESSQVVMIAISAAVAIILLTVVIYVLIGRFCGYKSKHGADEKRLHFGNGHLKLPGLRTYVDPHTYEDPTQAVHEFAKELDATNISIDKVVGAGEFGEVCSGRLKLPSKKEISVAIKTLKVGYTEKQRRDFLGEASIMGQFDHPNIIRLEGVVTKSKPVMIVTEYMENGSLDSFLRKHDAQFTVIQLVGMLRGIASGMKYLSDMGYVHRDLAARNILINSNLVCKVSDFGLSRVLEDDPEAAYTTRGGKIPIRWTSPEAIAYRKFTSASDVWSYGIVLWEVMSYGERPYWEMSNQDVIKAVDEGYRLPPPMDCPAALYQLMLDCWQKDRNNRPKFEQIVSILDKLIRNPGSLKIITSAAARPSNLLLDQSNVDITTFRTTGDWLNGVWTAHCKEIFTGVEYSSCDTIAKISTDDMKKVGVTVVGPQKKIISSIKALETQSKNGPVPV
Dual specificity tyrosine-phosphorylation-regulated kinase 1B (Homo sapiens), sequence (Q9Y463 whole entry, looked up): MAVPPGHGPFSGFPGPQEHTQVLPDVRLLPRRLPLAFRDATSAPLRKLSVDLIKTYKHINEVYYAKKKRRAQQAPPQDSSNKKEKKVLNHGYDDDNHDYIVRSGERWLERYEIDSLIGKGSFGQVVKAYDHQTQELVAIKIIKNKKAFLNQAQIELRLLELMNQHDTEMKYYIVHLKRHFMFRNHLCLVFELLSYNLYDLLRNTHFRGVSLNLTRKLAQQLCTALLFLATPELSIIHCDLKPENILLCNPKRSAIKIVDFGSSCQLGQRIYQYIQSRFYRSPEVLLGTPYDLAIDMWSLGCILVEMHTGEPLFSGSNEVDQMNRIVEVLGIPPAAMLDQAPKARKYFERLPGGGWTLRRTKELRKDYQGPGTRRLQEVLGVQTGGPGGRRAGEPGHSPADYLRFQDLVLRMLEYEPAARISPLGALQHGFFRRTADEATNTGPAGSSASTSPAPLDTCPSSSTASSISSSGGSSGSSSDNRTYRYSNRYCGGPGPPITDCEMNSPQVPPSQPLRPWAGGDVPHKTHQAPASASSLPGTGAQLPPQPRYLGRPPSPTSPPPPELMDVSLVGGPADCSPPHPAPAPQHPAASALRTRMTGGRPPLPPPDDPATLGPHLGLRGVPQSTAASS
Interleukin-1 receptor-associated kinase 3 (Homo sapiens), sequence (Q9Y616 whole entry): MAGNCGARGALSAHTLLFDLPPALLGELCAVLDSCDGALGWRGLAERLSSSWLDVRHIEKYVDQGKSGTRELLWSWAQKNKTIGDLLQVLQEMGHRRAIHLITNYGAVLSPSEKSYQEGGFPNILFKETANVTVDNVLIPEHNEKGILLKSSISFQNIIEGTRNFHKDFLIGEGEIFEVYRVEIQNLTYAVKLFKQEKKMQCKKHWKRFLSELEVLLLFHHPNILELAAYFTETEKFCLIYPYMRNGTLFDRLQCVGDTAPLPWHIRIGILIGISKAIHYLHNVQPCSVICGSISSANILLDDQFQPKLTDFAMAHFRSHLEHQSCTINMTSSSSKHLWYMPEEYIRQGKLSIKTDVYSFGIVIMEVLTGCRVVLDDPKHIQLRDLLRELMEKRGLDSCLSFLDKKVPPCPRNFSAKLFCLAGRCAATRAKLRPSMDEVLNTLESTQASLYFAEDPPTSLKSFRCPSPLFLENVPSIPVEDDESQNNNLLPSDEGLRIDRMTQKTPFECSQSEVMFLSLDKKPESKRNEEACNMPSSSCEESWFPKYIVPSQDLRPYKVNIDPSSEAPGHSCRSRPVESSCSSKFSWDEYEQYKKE
Myosin-IIIb (Homo sapiens), sequence (Q8WXR4 whole entry): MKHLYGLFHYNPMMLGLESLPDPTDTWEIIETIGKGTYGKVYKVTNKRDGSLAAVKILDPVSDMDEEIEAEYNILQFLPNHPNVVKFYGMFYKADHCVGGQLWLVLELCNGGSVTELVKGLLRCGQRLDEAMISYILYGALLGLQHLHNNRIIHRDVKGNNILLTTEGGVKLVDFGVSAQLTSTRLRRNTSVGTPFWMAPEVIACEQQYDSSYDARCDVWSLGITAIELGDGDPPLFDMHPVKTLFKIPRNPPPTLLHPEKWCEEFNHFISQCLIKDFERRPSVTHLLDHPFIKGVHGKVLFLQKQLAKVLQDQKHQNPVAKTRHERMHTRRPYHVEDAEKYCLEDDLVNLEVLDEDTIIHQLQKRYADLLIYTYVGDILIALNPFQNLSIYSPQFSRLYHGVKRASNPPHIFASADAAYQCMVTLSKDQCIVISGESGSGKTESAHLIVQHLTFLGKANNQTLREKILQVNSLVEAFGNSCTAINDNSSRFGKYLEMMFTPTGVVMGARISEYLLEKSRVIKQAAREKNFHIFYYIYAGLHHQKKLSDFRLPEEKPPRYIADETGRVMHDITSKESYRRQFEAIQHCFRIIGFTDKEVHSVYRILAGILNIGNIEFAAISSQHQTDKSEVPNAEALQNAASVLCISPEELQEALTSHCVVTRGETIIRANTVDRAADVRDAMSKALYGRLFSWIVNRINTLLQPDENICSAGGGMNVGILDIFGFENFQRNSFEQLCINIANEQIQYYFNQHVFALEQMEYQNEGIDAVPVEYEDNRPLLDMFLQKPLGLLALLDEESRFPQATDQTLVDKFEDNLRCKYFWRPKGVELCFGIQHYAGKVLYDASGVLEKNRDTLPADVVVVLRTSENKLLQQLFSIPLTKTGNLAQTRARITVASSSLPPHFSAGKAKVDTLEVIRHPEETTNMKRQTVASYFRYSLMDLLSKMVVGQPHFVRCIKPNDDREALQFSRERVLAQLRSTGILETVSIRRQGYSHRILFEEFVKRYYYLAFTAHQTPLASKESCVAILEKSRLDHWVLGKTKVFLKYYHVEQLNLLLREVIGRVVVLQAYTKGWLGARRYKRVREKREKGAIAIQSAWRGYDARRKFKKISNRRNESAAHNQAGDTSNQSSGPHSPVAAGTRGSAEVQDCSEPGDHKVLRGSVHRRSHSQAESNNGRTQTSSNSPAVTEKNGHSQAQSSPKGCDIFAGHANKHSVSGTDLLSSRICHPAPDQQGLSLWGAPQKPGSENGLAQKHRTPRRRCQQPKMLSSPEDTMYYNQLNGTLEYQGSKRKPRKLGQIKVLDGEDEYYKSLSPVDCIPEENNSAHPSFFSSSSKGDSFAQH
Cyclin-dependent kinase-like 2 (Homo sapiens), sequence (Q92772 whole entry): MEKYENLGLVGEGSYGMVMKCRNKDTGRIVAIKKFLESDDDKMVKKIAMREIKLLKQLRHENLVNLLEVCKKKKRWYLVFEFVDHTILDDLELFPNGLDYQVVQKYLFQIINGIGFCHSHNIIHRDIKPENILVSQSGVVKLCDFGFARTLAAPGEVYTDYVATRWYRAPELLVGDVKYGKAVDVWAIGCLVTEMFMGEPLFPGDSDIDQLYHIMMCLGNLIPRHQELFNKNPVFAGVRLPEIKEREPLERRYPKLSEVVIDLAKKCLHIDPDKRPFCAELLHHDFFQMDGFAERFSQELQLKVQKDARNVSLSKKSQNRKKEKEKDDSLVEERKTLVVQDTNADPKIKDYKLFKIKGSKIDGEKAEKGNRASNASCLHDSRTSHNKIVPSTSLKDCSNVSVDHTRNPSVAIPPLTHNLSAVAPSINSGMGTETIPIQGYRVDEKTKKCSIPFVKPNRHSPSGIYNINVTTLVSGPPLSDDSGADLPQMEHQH
Activin receptor type-1B (Homo sapiens), sequence (P36896 whole entry): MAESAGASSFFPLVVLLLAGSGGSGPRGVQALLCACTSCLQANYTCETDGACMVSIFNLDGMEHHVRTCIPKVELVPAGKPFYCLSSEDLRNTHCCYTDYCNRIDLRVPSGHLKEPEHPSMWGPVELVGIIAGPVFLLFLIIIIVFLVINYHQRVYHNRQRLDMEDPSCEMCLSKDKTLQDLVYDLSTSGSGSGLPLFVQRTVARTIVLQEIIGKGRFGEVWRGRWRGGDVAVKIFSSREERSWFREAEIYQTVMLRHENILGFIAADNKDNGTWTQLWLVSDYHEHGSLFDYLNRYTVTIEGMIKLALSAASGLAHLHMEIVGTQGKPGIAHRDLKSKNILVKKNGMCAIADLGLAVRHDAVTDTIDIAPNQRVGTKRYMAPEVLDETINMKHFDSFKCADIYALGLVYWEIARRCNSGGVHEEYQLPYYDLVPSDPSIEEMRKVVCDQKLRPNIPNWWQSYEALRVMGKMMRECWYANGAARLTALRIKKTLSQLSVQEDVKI

CCS(=O)(=O)c1cc2cc(C[C@](O)(CC(C)(C)c3ccc(F)cc3C(N)=O)C(F)(F)F)[nH]c2cn1
inactive: residual activity [1] 95% | residual activity [2] 100% | residual activity [3] 100% | residual activity [4] 100% | residual activity [5] 74% | residual activity [6] 100% | residual activity [7] 100% | residual activity [8] 93% | residual activity [9] 97% | residual activity [10] 100% | residual activity [11] 100% | residual activity [12] 88% | residual activity [13] 95% | residual activity [14] 100% | residual activity [15] 100% | residual activity [16] 72% | residual activity [17] 87% | residual activity [18] 100% | residual activity [19] 100% | residual activity [20] 100% | residual activity [21] 100% | residual activity [22] 100% | residual activity [23] 96% | residual activity [24] 100% | residual activity [25] 100% | residual activity [26] 100% | residual activity [27] 95% | residual activity [28] 100% | residual activity [29] 85% | residual activity [30] 100% | residual activity [31] 100% | residual activity [32] 66% | residual activity [33] 100% | residual activity [34] 100% | residual activity [35] 100% | residual activity [36] 100% | residual activity [37] 93% | residual activity [38] 100% | residual activity [39] 100% | residual activity [40] 100% | residual activity [41] 100% | residual activity [42] 83% | residual activity [43] 100% | residual activity [44] 100% | inhibition [45] 7.51%

CCS(=O)(=O)c1cc2cc(C[C@@](O)(CC(C)(C)c3ccc(F)cc3C(N)=O)C(F)(F)F)[nH]c2cn1
inactive: residual activity [1] 78% | residual activity [2] 100% | residual activity [3] 100% | residual activity [4] 100% | residual activity [5] 50% | residual activity [6] 69% | residual activity [7] 78% | residual activity [8] 90% | residual activity [9] 100% | residual activity [10] 94% | residual activity [11] 100% | residual activity [12] 100% | residual activity [13] 85% | residual activity [14] 95% | residual activity [15] 95% | residual activity [16] 100% | residual activity [17] 97% | residual activity [18] 99% | residual activity [19] 100% | residual activity [20] 100% | residual activity [21] 90% | residual activity [22] 95% | residual activity [23] 67% | residual activity [24] 100% | residual activity [25] 81% | residual activity [26] 100% | residual activity [27] 67% | residual activity [28] 79% | residual activity [29] 91% | residual activity [30] 99% | residual activity [31] 100% | residual activity [32] 74% | residual activity [33] 95% | residual activity [34] 85% | residual activity [35] 100% | residual activity [36] 100% | residual activity [37] 100% | residual activity [38] 92% | residual activity [40] 79% | residual activity [41] 100% | residual activity [42] 90% | residual activity [43] 100% | inhibition [45] 7.98%
active: residual activity [39] 0% | residual activity [44] 46%
